# Laboratory results published in patent publication US4698352A, “4-oxo-1,4-dihydronicotinic acid derivatives, salts thereof, and antibacterial agents containing the same” (Toyama Chemical Co., Ltd., priority 1982, dated 1987).
# Like-named read-outs stand apart in the source and are kept apart here.
# Tests used:
# Experiment in all cases: Antibacterial activity (MIC), agar dilution
# Type in all cases: cell-based
# Pro. vulgaris GN76** = conditions: Proteus vulgaris, 20 h; Pro. vulgaris GN76, cephalospolinase-producing; 10^6 cells per ml; read-out: MIC
# Description: (§1) The amount of bacteria inoculated was 10^4 cells per plate (10^6 cells per ml).
# (§2) ** Cephalospolinase-producing bacteria
# E. coli GN5482** = conditions: Escherichia coli, 20 h; E. coli GN5482, cephalospolinase-producing; 10^6 cells per ml; read-out: MIC
# Description: as §1, §2
# Ps. aeruginosa GN918** = conditions: Pseudomonas aeruginosa, Ps. aeruginosa GN918, cephalospolinase-producing, 10^6 cells per ml
# Description: as §1, §2
# Ps. aeruginosa GN3379* = conditions: Pseudomonas aeruginosa, Ps. aeruginosa GN3379, penicillinase-producing, 10^6 cells per ml
# Description: as §1
# (§3) * Penicillinase-producing bacteria
# Kl. pneumoniae Y-4* = conditions: Klebsiella pneumoniae, 20 h, Kl. pneumoniae Y-4, penicillinase-producing, 10^6 cells per ml
# Description: as §1, §3
# St. aureus F-137* = conditions: Staphylococcus aureus, 20 h, St. aureus F-137, penicillinase-producing; 10^6 cells per ml; read-out: MIC
# Description: as §1, §3
# E. coli TK-3* = conditions: Escherichia coli, 20 h, E. coli TK-3, penicillinase-producing; 10^6 cells per ml; read-out: MIC
# Description: as §1, §3
# Pro. vulgaris GN3027 = conditions: Proteus vulgaris, GN3027, 20 h, Pro. vulgaris GN3027; 10^6 cells per ml; 37° C., 20 hours; read-out: MIC
# Description: as §1
# Ps. aeruginosa S-68 = conditions: Pseudomonas aeruginosa
# Description: as §1
# E. coli NIHJ JC-2 = conditions: Escherichia coli, NIHJJC2, 20 h, E. coli NIHJ JC-2; 10^6 cells per ml; 37° C., 20 hours; read-out: MIC
# Description: as §1
# E. coli TK-111 = conditions: Escherichia coli, TK111, 20 h, E. coli TK-111; 10^6 cells per ml; 37° C., 20 hours; read-out: MIC
# Description: as §1
# St. aureus FDA209P = conditions: Staphylococcus aureus, FDA209P, 20 h, St. aureus FDA209P; 10^6 cells per ml; 37° C., 20 hours; read-out: MIC
# Description: as §1
# Pro. mirabilis T-111 = conditions: Proteus mirabilis, 37° C.
# Description: as §1
# Aci. antitratus A-6 = conditions: 20 h, Aci. antitratus A-6; 10^6 cells per ml; 37° C., 20 hours; read-out: MIC
# Description: as §1
# Kl. pneumoniae Y-41 = conditions: Klebsiella pneumoniae, Y41, 10^6 cells per ml, 37° C., 20 hours, read-out: MIC
# Description: as §1
# Ent. cloacae IID977 = conditions: Enterobacter cloacae, IID977, 20 h, Ent. cloacae IID977; 10^6 cells per ml; 37° C., 20 hours; read-out: MIC
# Description: as §1
# Kl. pneumoniae Y-50 = conditions: Klebsiella pneumoniae, Y50, 20 h, 10^6 cells per ml, 37° C., read-out: MIC
# Description: as §1
# Ps. aeruginosa IFO3445 = conditions: Pseudomonas aeruginosa
# Description: as §1
# Pro. morganii T-216 = conditions: Morganella morganii, 37° C.
# Description: as §1
# [1] = S68, Ps. aeruginosa S-68, 10^6 cells per ml, 37° C., 20 hours, read-out: MIC
# [2] = Ps. aeruginosa IFO3445, 10^6 cells per ml, 37° C., 20 hours, read-out: MIC
# [3] = T216, 10^6 cells per ml, 20 hours, read-out: MIC
SMILES,MIC (Pro. vulgaris GN76**) [µg/mL],MIC (E. coli GN5482**) [µg/mL],"MIC (Ps. aeruginosa GN918**; 20 h, read-out: MIC) [µg/mL]","MIC (Ps. aeruginosa GN3379*; 20 h, read-out: MIC) [µg/mL]",MIC (Kl. pneumoniae Y-4*; read-out: MIC) [µg/mL],MIC (St. aureus F-137*) [µg/mL],MIC (E. coli TK-3*) [µg/mL],MIC (Pro. vulgaris GN3027) [µg/mL],MIC (Ps. aeruginosa S-68; [1]) [µg/mL],MIC (E. coli NIHJ JC-2) [µg/mL],MIC (E. coli TK-111) [µg/mL],MIC (St. aureus FDA209P) [µg/mL],"MIC (Pro. mirabilis T-111; T111, 20 h, 10^6 cells per ml) [µg/mL]",MIC (Aci. antitratus A-6) [µg/mL],MIC (Kl. pneumoniae Y-41) [µg/mL],MIC (Ent. cloacae IID977) [µg/mL],MIC (Kl. pneumoniae Y-50) [µg/mL],MIC (Ps. aeruginosa IFO3445; [2]) [µg/mL],"MIC (Pro. morganii T-216; T216, 20 h, 10^6 cells per ml) [µg/mL]",MIC (Pro. morganii T-216; [3]) [µg/mL],other results
Cc1cc(O)ccc1-n1cc(C(=O)O)c(=O)cc1-c1ccc2[nH]ccc2c1,0.78,≤ 0.05,3.13,25,1.56,0.1,0.39,0.2,6.25,0.39,0.1,0.1,1.56,3.13,0.78,0.78,0.2,6.25,1.56,–,–
COc1ccc(-c2cc(=O)c(C(=O)O)cn2-c2ccc(O)cc2C)cc1F,0.39,≤ 0.05,–,12.5,1.56,0.1,0.39,0.1,6.25,0.39,≤ 0.05,0.1,1.56,0.39,1.56,0.39,0.78,12.5,1.56,–,"MIC (Ps. aeruginosa GN918**; GN918, 20 h): 1.56 µg/mL"
Cc1cc(O)ccc1-n1cc(C(=O)O)c(=O)cc1/C=C/c1ccccc1,0.39,≤ 0.05,1.56,6.25,3.13,0.2,0.39,0.1,–,0.39,0.2,0.1,3.13,0.1,3.13,1.56,0.39,25,–,1.56,"MIC (Ps. aeruginosa S-68; S68, 20 h): 3.13 µg/mL"
O=C(O)c1cn(-c2ccc(O)cc2)c(-c2ccc(-n3cccc3)cc2)cc1=O,0.78,≤ 0.05,–,3.13,1.56,0.1,0.39,0.2,3.13,0.1,≤ 0.05,0.1,1.56,0.1,1.56,0.78,0.39,3.13,1.56,–,"MIC (Ps. aeruginosa GN918**; GN918, 20 h): 1.56 µg/mL"
O=C(O)c1cn(-c2ccc(O)cc2)c(-c2ccc(-c3ccccn3)s2)cc1=O,0.78,≤ 0.05,1.56,–,3.13,0.2,0.78,0.1,–,0.39,≤ 0.05,0.2,3.13,0.78,3.13,1.56,0.78,–,–,1.56,"MIC (Ps. aeruginosa GN3379*; GN3379, 20 h): 3.13 µg/mL; MIC (Ps. aeruginosa S-68; S68, 20 h): 3.13 µg/mL; MIC (Ps. aeruginosa IFO3445; IFO3445, 20 h): 3.13 µg/mL"
Cc1cc(O)ccc1-n1cc(C(=O)O)c(=O)cc1-c1ccc(N(C)C)cc1,0.39,≤ 0.05,1.56,3.13,–,≤ 0.05,0.2,0.1,3.13,0.1,≤ 0.05,≤ 0.05,–,0.1,0.78,0.39,0.2,3.13,–,0.78,"MIC (Kl. pneumoniae Y-4*): 0.78 µg/mL; MIC (Pro. mirabilis T-111; T111, 10^6 cells per ml, 20 hours, read-out: MIC): 0.78 µg/mL"
